Like-named read-outs stand apart in the source and are kept apart here.

One assay relates to rabbit arteries. The conditions noted are these: endothelium-, gap junction- and cAMP-dependent; cited from earlier work.
Assay [1] concerns smooth muscle cAMP levels. Nature of the assay: Radioimmunoassay of cAMP in iliac artery rings. It is filed as cell-based, rabbit. On the procedure:
(§1) Radioimmunoassay. Multiple rings from the same artery were incubated in oxygenated Holmans buffer containing L-NAME (300 μM) and indomethacin (10 μM) for 40 min at 37° C. in the presence or absence of 18α-GA (100 μM). Rings were frozen in liquid N2 at time points up to 180 s following addition of ACh or A23187 and stored at −70° C. before extraction of cAMP or cGMP in 6% trichloroacetic acid, followed by neutralization with water saturated diethyl ether and subsequent radioimmunoassay (Amersham UK). PE (1 μM) was added 3 min before the initial control point and control experiments were performed with endothelium-denuded rings. Nucleotide levels were expressed relative to protein content (27).

Assay [2] deals with sandwich preparations of rabbit iliac artery. The assay is described as follows: 'Sandwich' bioassay preparations of iliac artery (endothelium-intact donor ring, denuded detector strip). Type of assay: cell-based. The text has this: ‘Sandwich’ preparations. Rings of iliac artery 2-3 mm wide were denuded of endothelium, cut into strips and pierced ˜2 mm from each end using a Monoject needle (0.9 mm×40 mm). These strips were introduced into the lumen of rings of endothelium-intact iliac artery 4-5 mm wide and the tissues sutured together. Composite preparations were then mounted in a Mulvany Multi Myograph (Danish Myo Technology) with the pierced denuded strips hooked onto the large vessel mountings. Tension was initially set at ˜0.25 g and readjusted during an equilibrium period of 1 h. The preparations were then incubated for 40 min with L-NAME (300 μM) and indomethacin (10 μM), constricted with PE (1 or 3 μM), and concentration-response curves constructed for ACh in the presence/absence of IBMX (20 μM), or A23187 in the presence/absence of IBMX (20 μM) or 2′5′DDA (200 μM).
(§2) Statistical Analysis All data are given as mean±SEM, where n denotes the number of animals studied for each data point, and were compared by the Student's t-test for paired or unpaired data as appropriate. P<0.05 was considered as significant. Concentration-response curves were assessed by one-way analysis of variance (ANOVA) followed by the Bonferroni multiple comparisons test.

In a further assay the test system is cGMP levels. The assay is described as follows: Radioimmunoassay of cGMP in iliac artery rings. It is filed as cell-based, rabbit. The following applies: in the presence of L-NAME and indomethacin. The procedure: as §1
Assay [3] concerns rabbit iliac artery rings. Nature of the assay: EDHF-type relaxation of isolated rabbit iliac artery rings constricted with phenylephrine. Type of assay: cell-based. The following applies: for EC50: Oryctolagus cuniculus. On the procedure:
Isolated Ring Preparations. Male New Zealand white rabbits (2-2.5 kg) were sacrificed with sodium pentobarbitone (120 mg/kg; i.v.) and the iliac artery removed and transferred to cold Holman's buffer of the following composition (mM): 120 NaCl, 5 KCl, 2.5 CaCl2, 1.3 NaH2PO4, 25 NaHCO3, 11 glucose, and 10 sucrose. […] Endothelium-intact rings were incubated for 40 min with N^G-nitro-L-arginine methyl ester (L-NAME, 300 μM) and indomethacin (10 μM) and following constriction with phenylephrine (PE) cumulative concentration-relaxation curves to ACh or A23187 were constructed. Some preparations were preincubated for 40 min with either 2′5′-dideoxyadenosine (2′5′-DDA, 200 μM), 3-isobutyl-1-methylxanthine (IBMX, 20 μM), 18α-GA (100 μM), glibenclamide (10 μM), the combination of charybdotoxin (100 nM) and apamin (300 nM), or the combination of charybdotoxin (100 nM), apamin (300 nM) and IBMX (20 μM). Concentration-response curves to ACh and A23187 were also constructed for endothelium-denuded rings in the absence/presence of IBMX (20 μM). In experiments with IBMX the concentration of PE used to induce tone was increased from 1 to 3 μM. All reagents were obtained from Sigma, U.K.
as §2

As to `CCCCC/C=C\C/C=C\C/C=C\CC1OC1CCCC(=O)O` (centres unmarked) [5,6-EET], the “Relaxation of rabbit arteries by EET regioisomers” value in the assay on rabbit arteries is recorded as “evokes relaxations”.

With `CNc1ccc2oc(C[C@H]3O[C@@]4(CC[C@H]3C)O[C@H]([C@H](C)C(=O)c3ccc[nH]3)[C@H](C)C[C@H]4C)nc2c1C(=O)O` [A23187], the “Time of peak in cAMP levels” value in assay [1] (agonist 3 μM, endothelium-intact rings, L-NAME 300 μM + indomethacin 10 μM) was 40 to 50 s. The “Change of cAMP level in endothelium-denuded preparations” value in assay [1] (endothelium-denuded, basal 3.97±0.49 pmol/mg protein) is “did not significantly increase”. The “Increase (elevation) in smooth muscle cAMP levels” value in assay [1] (rings incubated with L-NAME and indomethacin, endothelium-dependent) was found to be 1.5 fold. Besides, the “Maximal EDHF-type relaxation in sandwich preparations, % of PE-induced tone” value in assay [2] (L-NAME 300 μM + indomethacin 10 μM, no modulator) is recorded as 52.0±8.0%. Further, the EC50 in assay [2] (Oryctolagus cuniculus, read-out: EC50 of relaxation in sandwich preparations) was found to be 240 ± 40 nM; in assay [3] (read-out: EC50 of A23187 relaxation (control of charybdotoxin/apamin series)), 291 ± 128 nM; in assay [3] (endothelium-intact rings, L-NAME + indomethacin, control of IBMX / 2′,5′-DDA series, read-out: EC50 of EDHF-type relaxation (control)), 328 ± 123 nM. Further, in the assay on cGMP levels, the “Effect on cGMP levels” value is “unaltered”. Moreover, the “Maximal EDHF-type relaxations, % of PE-induced tone” value in assay [3] (approximate, at concentrations ~3 μM, L-NAME 300 μM + indomethacin 10 μM) was roughly 40%. The “Relaxation after endothelial denudation” value in assay [3] (endothelium-denuded rings) is listed as “abolished”. Also, the “Relaxation in endothelium-denuded rings incubated with IBMX, % of PE-induced tone” value in assay [3] (endothelium-denuded rings, IBMX 20 μM) came out at 21.7±3.6%. Also, in assay [3] (endothelium-intact rings, L-NAME 300 μM + indomethacin 10 μM, control of IBMX / 2′,5′-DDA series), the “Maximal EDHF-type relaxation, % of PE-induced tone (control)” value is 50.2±5.6%. Further, the “Maximal relaxation to A23187, % of PE-induced tone (control of charybdotoxin/apamin series)” value in assay [3] (endothelium-intact rings, L-NAME + indomethacin) was 50.0±5.8%.

Values taken from US20030105165A1, “Gap junctions and EDHF” (priority 2001, published 2003).
